Source: ChEMBL document CHEMBL1667753, “Synthesis of 2-(aminomethyl)aziridines and their microwave-assisted ring opening to 1,2,3-triaminopropanes as novel antimalarial pharmacophores” (Eur J Med Chem, 2011)

Assays:
Plasmodium falciparum [1] = test: Antiplasmodial activity against chloroquine-sensitive Plasmodium falciparum D10 by parasite LDH assay; format: functional, organism-based
CHO = test: Cytotoxicity against CHO cells by MTT assay; format: cell-based; settings: Cricetulus griseus
Plasmodium falciparum [2] = test: Resistance index, ratio of IC50 for chloroquine-resistant Plasmodium falciparum Dd2 to IC50 for chloroquine-sensitive Plasmodium falciparum D10; format: functional
Plasmodium falciparum [3] = test: Antiplasmodial activity against chloroquine-resistant Plasmodium falciparum Dd2 by parasite LDH assay; format: functional, organism-based
[4] = Selectivity index, ratio of IC50 for CHO cells to IC50 for chloroquine-sensitive Plasmodium falciparum D10; format: toxicity, cell-based; settings: hamster, read-out: Ratio IC50

| Compound | IC50 (Plasmodium falciparum [1]) | IC50 (CHO) | Ratio IC50 (Plasmodium falciparum [2]) | IC50 (Plasmodium falciparum [3]) | selectivity ratio [4] |
| --- | --- | --- | --- | --- | --- |
| CCN(CC)CC(CN(CC)CC)NCc1ccccc1 | 23.7 µM | > 300 µM | 1.3 | 30.2 µM | – |
| CCN(CC)CC(CN(CC)CC)NCc1ccc(Cl)cc1 | 8.41 µM | 76.4 µM | 2.4 | 19.8 µM | 9.1 |
| CCN(CC)CC(CN(CC)CC)NCc1ccc(OC)cc1 | 6.66 µM | 170 µM | 2 | 13.5 µM | 24.2 |
| Nc1ncnc2c1ncn2CC1CN1Cc1ccccc1 (racemic) | > 350 µM | – | – | – | – |
| Nc1ncnc2c1ncn2CC1CN1Cc1ccc(Cl)cc1 (racemic) | > 300 µM | – | – | – | – |
| COc1ccc(CN2CC2Cn2cnc3c(N)ncnc32)cc1 (racemic) | 267 µM | – | – | – | – |
| Cc1cn(CC2CN2Cc2ccc(Cl)cc2)c(=O)[nH]c1=O (racemic) | 138 µM | – | – | – | – |
| COc1ccc(CN2CC2Cn2cc(C)c(=O)[nH]c2=O)cc1 (racemic) | 172 µM | – | – | – | – |
| c1ccc(CN2CC2Cn2cncn2)cc1 (racemic) | 80.7 µM | – | – | – | – |
| Clc1ccc(CN2CC2Cn2cncn2)cc1 (racemic) | 126 µM | – | – | – | – |
| COc1ccc(CN2CC2Cn2cncn2)cc1 (racemic) | 4.18 µM | > 400 µM | 5.6 | 23.2 µM | – |
| CCN(CC)CC1CN1Cc1ccccc1 (racemic) | 15.2 µM | 402 µM | 3.2 | 48.3 µM | 26.3 |
| CCN(CC)CC1CN1Cc1ccc(Cl)cc1 (racemic) | 6.49 µM | 247 µM | 3.7 | 23.7 µM | 38.1 |
| CCN(CC)CC1CN1Cc1ccc(OC)cc1 (racemic) | 8.54 µM | 193 µM | 2.1 | 18 µM | 22.6 |
| CCN(CC)CC(Cn1cnc2c(N)ncnc21)NCc1ccccc1 (racemic) | 214 µM | – | – | – | – |
| CCN(CC)CC(Cn1cnc2c(N)ncnc21)NCc1ccc(Cl)cc1 (racemic) | 78.2 µM | – | – | – | – |
| CCN(CC)CC(Cn1cnc2c(N)ncnc21)NCc1ccc(OC)cc1 (racemic) | 81.9 µM | – | – | – | – |
| CCN(CC)CC(Cn1cc(C)c(=O)[nH]c1=O)NCc1ccc(Cl)cc1 (racemic) | 71.7 µM | – | – | – | – |
| CCN(CC)CC(Cn1cc(C)c(=O)[nH]c1=O)NCc1ccc(OC)cc1 (racemic) | 128 µM | – | – | – | – |
| CCN(CC)CC(Cn1cncn1)NCc1ccccc1 (racemic) | 42.9 µM | > 300 µM | 2.3 | 98.8 µM | – |
| CCN(CC)CC(Cn1cncn1)NCc1ccc(Cl)cc1 (racemic) | 6.52 µM | > 300 µM | 2 | 13.1 µM | – |
| CCN(CC)CC(Cn1cncn1)NCc1ccc(OC)cc1 (racemic) | 1.98 µM | 159 µM | 41.1 | 80.9 µM | – |
| CC[C@H]1CN2CCc3cc(OC)c(OC)cc3[C@@H]2C[C@@H]1C[C@H]1NCCc2cc(OC)c(OC)cc21 [EMETINE] | – | 0.127 µM | – | – | – |
